Test results published in the supplement of paper PMC10307832.

What was measured:
Experiment in all cases: relative viability (nuclei count vs DMSO), 5 days (fraction); higher = more cells survive
Crenolanib + Pictilisib = compound: CC1(COc2ccc3c(c2)ncn3-c2ccc3cccc(N4CCC(N)CC4)c3n2)COC1 [Crenolanib] + CS(=O)(=O)N1CCN(Cc2cc3nc(-c4cccc5[nH]ncc45)nc(N4CCOCC4)c3s2)CC1 [Pictilisib] (partner 1 µM)
Summary of the method: (§1)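 Each reported value is a median over duplicate plates. It expresses relative viability: treated-well nuclei count divided by vehicle-well nuclei count. Lung cancer cell lines in 1536-well plates were dosed by pin tool a day after seeding, alone with one drug or with a fixed anchor-drug dose plus five library-drug doses (not always all listed) in √10 steps, and nuclei were counted after 5 days.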

Tivantinib + Foretinib = compound: O=C1NC(=O)[C@@H](c2cn3c4c(cccc24)CCC3)[C@@H]1c1c[nH]c2ccccc12 [Tivantinib] + COc1cc2c(Oc3ccc(NC(=O)C4(C(=O)Nc5ccc(F)cc5)CC4)cc3F)ccnc2cc1OCCCN1CCOCC1 [Foretinib] (partner 0.25 µM)
Summary of the method: as §1

Tivantinib + Phenformin = compound: O=C1NC(=O)[C@@H](c2cn3c4c(cccc24)CCC3)[C@@H]1c1c[nH]c2ccccc12 [Tivantinib] + N=C(N)NC(=N)NCCc1ccccc1 [Phenformin] (partner 250 µM)
Summary of the method: as §1

Tivantinib + Pemetrexed = compound: O=C1NC(=O)[C@@H](c2cn3c4c(cccc24)CCC3)[C@@H]1c1c[nH]c2ccccc12 [Tivantinib] + Nc1nc2[nH]cc(CCc3ccc(C(=O)N[C@@H](CCC(=O)O)C(=O)O)cc3)c2c(=O)[nH]1 [Pemetrexed] (partner 0.2 µM)
Summary of the method: as §1

Tivantinib + Tozasertib = compound: O=C1NC(=O)[C@@H](c2cn3c4c(cccc24)CCC3)[C@@H]1c1c[nH]c2ccccc12 [Tivantinib] + Cc1cc(Nc2cc(N3CCN(C)CC3)nc(Sc3ccc(NC(=O)C4CC4)cc3)n2)n[nH]1 [Tozasertib] (partner 0.1 µM)
Summary of the method: as §1

Cell Line: UMC-11
- relative viability (Crenolanib + Pictilisib; first compound 0.01 µM): 0.76
- relative viability (Crenolanib + Pictilisib; first compound 0.03162 µM): 0.834
- relative viability (Crenolanib + Pictilisib; first compound 0.1 µM): 0.787
- relative viability (Crenolanib + Pictilisib; first compound 0.3162 µM): 0.848
- relative viability (Crenolanib + Pictilisib; first compound 1 µM): 0.733
- relative viability (Tivantinib + Foretinib; first compound 0.01 µM): 1.04
- relative viability (Tivantinib + Foretinib; first compound 0.03162 µM): 0.975
- relative viability (Tivantinib + Foretinib; first compound 0.1 µM): 0.944
- relative viability (Tivantinib + Foretinib; first compound 0.3162 µM): 1.01
- relative viability (Tivantinib + Phenformin; first compound 0.01 µM): 0.331
- relative viability (Tivantinib + Phenformin; first compound 0.03162 µM): 0.338
- relative viability (Tivantinib + Phenformin; first compound 0.1 µM): 0.289
- relative viability (Tivantinib + Phenformin; first compound 0.3162 µM): 0.371
- relative viability (Tivantinib + Pemetrexed; first compound 0.01 µM): 0.772
- relative viability (Tivantinib + Pemetrexed; first compound 0.03162 µM): 0.759
- relative viability (Tivantinib + Pemetrexed; first compound 0.1 µM): 0.75
- relative viability (Tivantinib + Pemetrexed; first compound 0.3162 µM): 0.803
- relative viability (Tivantinib + Tozasertib; first compound 0.01 µM): 0.202
- relative viability (Tivantinib + Tozasertib; first compound 0.1 µM): 0.178
- relative viability (Tivantinib + Tozasertib; first compound 0.3162 µM): 0.188
